Assay results reported in patent publication US11160887B2, “Compositions for use in diagnosing and treating melanoma, including metastatic melanoma and methods related to same” (UNM RAINFOREST INNOVATIONS, priority 2008, dated 2021).
Read-outs that look alike come from different tables or passages of the source. Residues, ends and D or L forms follow the SMILES beside them.

Legend:
[1] = biological target: T1, MC1 receptor (B16/F1 murine melanoma cells) (Mus musculus, UniProt Q01727); test: In vitro competitive binding assay in B16/F1 cells (125I-Tyr2-NDP-MSH displacement); conditions: 25° C., 2 h
T1 construct: host or cells: B16/F1 murine melanoma cells
T1 sequence (Q01727 whole entry): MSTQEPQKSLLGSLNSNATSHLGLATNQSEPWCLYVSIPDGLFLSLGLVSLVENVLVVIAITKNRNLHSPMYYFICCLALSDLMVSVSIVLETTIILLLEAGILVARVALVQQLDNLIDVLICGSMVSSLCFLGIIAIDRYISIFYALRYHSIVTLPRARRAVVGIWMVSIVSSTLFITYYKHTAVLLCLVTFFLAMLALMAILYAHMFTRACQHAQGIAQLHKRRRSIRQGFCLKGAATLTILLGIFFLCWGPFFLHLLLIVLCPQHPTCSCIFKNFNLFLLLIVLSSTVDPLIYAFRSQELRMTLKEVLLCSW
Method: In vitro Competitive Binding Assay: The IC50 values of DOTA-CycMSH and DOTA-GlyGlu-CycMSH were determined by using methods described previously (8). B16/F1 cells were harvested and seeded into a 24-well cell culture plate (5×10^5/well) and incubated at 37° C. overnight. After being washed once with binding media (MEM with 25 mM HEPES, pH 7.4, 0.2% BSA, 0.3 mM 1,10-phenathroline), the cells were incubated at room temperature (25° C.) for 2 h with approximately 50,000 cpm of ^125I-Tyr^2-[Nle^4, D-Phe^7]-α-MSH {NDP-MSH} (GE HealthCare, Piscataway, N.J.) in presence of increasing concentrations of DOTA-CycMSH or DOTA-GlyGlu-CycMSH in 0.3 ml of binding media. The reaction media were aspirated after incubation. Cells were rinsed with 0.5 ml of ice-cold pH 7.4, 0.2% BSA/0.01 M PBS twice and lysed in 0.5 ml of 1 N NaOH for 5 minutes. The activities in cells were measured in a gamma counter. The IC50 values for the peptides were calculated by using the Grafit software (Erithacus Software Limited, UK).
In vitro Competitive Binding Assay: The IC50 values of DOTA-GluGlu-CycMSH and Ac-GluGlu-CycMSH[DOTA] were determined by using methods described previously (12). B16/F1 cells were harvested and seeded into a 24-well cell culture plate (5×10^5/well) and incubated at 37° C. overnight. After being washed once with binding media (MEM with 25 mM HEPES, pH 7.4, 0.2% BSA, 0.3 mM 1,10-phenathroline), the cells were incubated at 25° C. for 2 h with approximately 50,000 cpm of ^125I-(Tyr^2)-NDP-MSH in the presence of increasing concentrations (10^−13 to 10^−6 M) of DOTA-GluGlu-CycMSH or Ac-GluGlu-CycMSH[DOTA] in 0.3 ml of binding media. The reaction media were aspirated after incubation. Cells were rinsed with 0.5 ml of ice-cold pH 7.4; 0.2% BSA/0.01 M PBS twice and lysed in 0.5 ml of 1 N NaOH for 5 min. The activities associated with cells were measured in a Wallac 1480 automated gamma counter (PerkinElmer, N.J.). The IC50 values of the peptides were calculated by using Prism software (GraphPad Software, La Jolla, Calif.).

[2] = Urinary metabolites by HPLC in B16/F1 melanoma-bearing C57 mice; assay type: in vivo, mouse; conditions: urine, 2 h post-injection
Method: Urinary Metabolites of ^111In-DOTA-CycMSH and ^111In-DOTA-GlyGlu-CycMSH: One hundred microliter of HPLC purified ^111In-DOTA-CycMSH (0.74-1.11 MBq, 0.82-1.12 ng) or ^111In-DOTA-GlyGlu-CycMSH (0.74-1.11 MBq, 0.90-1.35 ng) was injected into each B16/F1 murine melanoma-bearing C57 mouse through the tail vein. At 2 h after dose administration, mice were sacrificed and the urine was collected. The radioactive metabolites in the urine were analyzed by injecting aliquots of urine into HPLC. A 20-minute gradient of 16-26% acetonitrile/20 mM HCl was used for the urine analysis.

[3] = Biodistribution in B16/F1 murine melanoma-bearing C57 mice; assay type: in vivo, mouse; conditions: female, C57, mouse, iv, 0.037 MBq, total radioactivity; for tissue uptake: all time points (2, 4, 24 h)
Method: (§1) Biodistribution Studies: All the animal studies were conducted in compliance with Institutional Animal Care and Use Committee approval. The pharmacokinetics of ^111In-DOTA-CycMSH and ^111In-DOTA-GlyGlu-CycMSH were determined in B16/F1 murine melanoma-bearing C57 female mice (Harlan, Indianapolis, Ind.). C57 mice were inoculated subcutaneously with 1×10^6 B16/F1 murine melanoma cells in the right flank. After 10 days, when the weight of tumors reached approximately 0.2 g, 0.037 MBq of ^111In-DOTA-CycMSH or ^111In-DOTA-GlyGlu-CycMSH was injected into each mouse through the tail vein. Groups of 5 mice were sacrificed at 2, 4 and 24 h post-injection, and tumors and organs of interest were harvested, weighed and counted. Blood values were taken as 6.5% of the whole-body weight. The tumor uptake specificity of ^111In-DOTA-CycMSH and ^111In-DOTA-GlyGlu-CycMSH was determined by blocking tumor uptake with the co-injection of 10 μg (6.07 nmol) of unlabeled NDP-MSH, a linear α-MSH peptide analogue with picomolar affinity for the MC1 receptors present on murine melanoma cells. Statistical analysis was performed using the Student's t-test for unpaired data.

[4] = system: B16/F1 murine melanoma-bearing C57 mice; test: as above; assay type: in vivo, mouse
Method: as §1

[5] = Stability in mouse serum monitored by RP-HPLC; assay type: in vitro ADME; conditions: 37° C., 24 h incubation
Method: Complexation of the Peptide with ^111In: ^111In-DOTA-CycMSH and ^111In-DOTA-GlyGlu-CycMSH were prepared using a 0.5 M NH4OAc-buffered solution at pH 5.4. Briefly, 50 μl of ^111InCl3 (18.5-37.0 MBq in 0.05 M HCl), 10 μl of 1 mg/ml DOTA-CycMSH or DOTA-GlyGlu-CycMSH aqueous solution and 400 μl of 0.5 M NH4OAc (pH 5.4) were added into a reaction vial and incubated at 75° C. for 45 min. After the incubation, 20 μl of 0.5% EDTA aqueous solution was added into the reaction vial to scavenge potential unbound ^111In. The radiolabeled complexes were purified to single species by Waters RP-HPLC (Milford, Mass.) on a Grace Vadyc C-18 reverse phase analytical column (Deerfield, Ill.) using a 20-minute gradient of 16-26% acetonitrile in 20 mM HCl aqueous solution with a flowrate of 1 ml/min. Purified peptide samples were purged with N2 gas for 20 minutes to remove the acetonitrile. The pH of final solution was adjusted to 7.4 with 0.1 N NaOH and normal saline for animal studies. The stability of ^111In-DOTA-CycMSH and ^111In-DOTA-GlyGlu-CycMSH was determined by incubation in mouse serum at 37° C. according to the published procedure (20) for various time periods, and monitored for degradation by RP-HPLC.

[6] = system: endocytosis in tubular cells; conditions: rat model, literature (27); cited from earlier work
[7] = biological target: T2, MC1 receptor (B16/F10 murine melanoma cells) (Mus musculus, UniProt Q01727); test: In vitro competitive binding assay in B16/F10 cells (125I-(Tyr2)-NDP-MSH displacement); conditions: 25° C., 2 h, read-out: IC50 (MC1 receptor binding affinity)
T2 construct: host or cells: B16/F10 murine melanoma cells
T2 sequence (Q01727 whole entry): as above
Method: In vitro Competitive Binding Assay: The IC50 value of DOTA-GlyGlu-CycMSH was determined in B16/F10 cells. The cells were harvested and seeded into a 24-well cell culture plate (5×10^5/well) and incubated at 37° C. overnight. After being washed once with binding media, the cells were incubated at 25° C. for 2 h with approximately 50,000 cpm of ^125I-(Tyr^2)-NDP-MSH in the presence of increasing concentrations of DOTA-GlyGlu-CycMSH (10^−12 to 10^−5 M) in 0.3 mL of binding media. The reaction media were aspirated after incubation. Cells were rinsed with 0.5 mL of ice-cold pH 7.4, 0.2% BSA/0.01 M PBS twice, and then lysed in 0.5 mL of 1 N NaOH for 5 min. The activities associated with the cells were measured in a gamma counter. The IC50 value was calculated by using Prism software.

Q: Which IC50 [1] does the source give for `CCCC[C@@H]1NC(=O)[C@@H](NC(=O)[C@H](CCC(=O)O)NC(=O)[C@H](CCC(=O)O)NC(=O)CN2CCN(CC(=O)O)CCN(CC(=O)O)CCN(CC(=O)O)CC2)CCCCNC(=O)[C@H](CC(=O)O)NC(=O)[C@H](C(C)C)NC(=O)[C@@H]2CCCN2C(=O)[C@H](CCCNC(=N)N)NC(=O)CNC(=O)[C@H](Cc2c[nH]c3ccccc23)NC(=O)[C@H](CCCNC(=N)N)NC(=O)[C@@H](Cc2ccccc2)NC(=O)[C@H](Cc2c[nH]cn2)NC(=O)[C@H](CCC(=O)O)NC1=O` [DOTA-GluGlu-CycMSH, 1,4,7,10-tetraazacyclododecane-1,4,7,10-tetraacetic acid-Glu-Glu-c[Lys-Nle-Glu-His-DPhe-Arg-Trp-Gly-Arg-Pro-Val-Asp]] (HELM PEPTIDE1{[O=C(O)CN1CCN(CC(=O)O)CCN(CC(=O)[*:2])CCN(CC(=O)O)CC1].E.E.K.[Nle].E.H.[dF].R.W.G.R.P.V.D}$PEPTIDE1,PEPTIDE1,4:R3-15:R2$$$V2.0) here?
A: 6.73 nM

Q: For `CCCC[C@@H]1NC(=O)[C@@H](NC(=O)CN2CCN(CC(=O)O)CCN(CC(=O)O)CCN(CC(=O)O)CC2)CCCCNC(=O)[C@H](CC(=O)O)NC(=O)[C@H](C(C)C)NC(=O)[C@@H]2CCCN2C(=O)[C@H](CCCNC(=N)N)NC(=O)CNC(=O)[C@H](Cc2c[nH]c3ccccc23)NC(=O)[C@H](CCCNC(=N)N)NC(=O)[C@@H](Cc2ccccc2)NC(=O)[C@H](Cc2c[nH]cn2)NC(=O)[C@H](CCC(=O)O)NC1=O` [DOTA-CycMSH] (HELM PEPTIDE1{[O=C(O)CN1CCN(CC(=O)O)CCN(CC(=O)[*:2])CCN(CC(=O)O)CC1].K.[Nle].E.H.[dF].R.W.G.R.P.V.D}$PEPTIDE1,PEPTIDE1,2:R3-13:R2$$$V2.0), which IC50 [1] is on record?
A: 1.75 nM

Q: With `CCCC[C@@H]1NC(=O)[C@@H](NC(=O)CN2CCN(CC(=O)O)CCN(CC(=O)O)CCN(CC(=O)O)CC2)CCCCNC(=O)[C@H](CC(=O)O)NC(=O)[C@H](C(C)C)NC(=O)[C@@H]2CCCN2C(=O)[C@H](CCCNC(=N)N)NC(=O)CNC(=O)[C@H](Cc2c[nH]c3ccccc23)NC(=O)[C@H](CCCNC(=N)N)NC(=O)[C@@H](Cc2ccccc2)NC(=O)[C@H](Cc2c[nH]cn2)NC(=O)[C@H](CCC(=O)O)NC1=O` [^111In-DOTA-CycMSH, metal not drawn] (HELM PEPTIDE1{[O=C(O)CN1CCN(CC(=O)O)CCN(CC(=O)[*:2])CCN(CC(=O)O)CC1].K.[Nle].E.H.[dF].R.W.G.R.P.V.D}$PEPTIDE1,PEPTIDE1,2:R3-13:R2$$$V2.0) as the compound, how does the “urinary metabolites by RP-HPLC” value [2] read?
A: transformed to two more polar metabolites

Q: What about the tissue uptake ([3]; bone, read-out: bone uptake) of the same compound?
A: < 0.2 %ID/g

Q: What about the kidney uptake at 24 h ([3]; kidney, 24 h after dose administration) of the same compound?
A: 16 ± 2.3 %ID/g

Q: And the tissue uptake ([3]; normal organs except the kidneys, read-out: normal organ uptakes except for the kidneys)?
A: < 0.8 %ID/g

Q: And the tissue uptake at 2 h ([3]; tumor, 2 h post-injection, tail vein)?
A: 9.53 ± 1.41 %ID/g

Q: And the tissue uptake at 4 h ([3]; tumor, 4 h post-injection, tail vein)?
A: 7.54 ± 0.7 %ID/g

Q: What about the tissue uptake at 24 h ([3]; tumor, 24 h post-injection, tail vein) of the same compound?
A: 2.22 ± 0.51 %ID/g

Q: And the dose excreted ([3]; urine, by 2 h post-injection, read-out: injected radioactivity cleared through the urinary system)?
A: ~90%

Q: And the “tumor uptake with NDP co-injection as % of the tumor uptake without NDP co-injection” value ([4]; 10 μg (6.07 nmol) non-radiolabeled NDP co-injection, 2 h after dose administration)?
A: 3.0%

Q: And the tumor uptake ([4]; 2 h post-injection, tail vein)?
A: 9.53±1.41 % ID/g

Q: And the “stability in mouse serum” value [5]?
A: stable

Q: Which “decrease of the renal uptake of radiolabeled peptide” value [6] does the source give for `COc1cc2c(c(OC)c1OC)-c1ccc(OC)c(=O)cc1[C@@H](NC(C)=O)CC2` [colchicine] here?
A: up to 25%

Q: For `CCCC[C@@H]1NC(=O)[C@@H](NC(=O)[C@H](CCC(=O)O)NC(=O)CNC(=O)CN2CCN(CC(=O)O)CCN(CC(=O)O)CCN(CC(=O)O)CC2)CCCCNC(=O)[C@H](CC(=O)O)NC(=O)[C@H](C(C)C)NC(=O)[C@@H]2CCCN2C(=O)[C@H](CCCNC(=N)N)NC(=O)CNC(=O)[C@H](Cc2c[nH]c3ccccc23)NC(=O)[C@H](CCCNC(=N)N)NC(=O)[C@@H](Cc2ccccc2)NC(=O)[C@H](Cc2c[nH]cn2)NC(=O)[C@H](CCC(=O)O)NC1=O` [DOTA-GlyGlu-CycMSH, DOTA-Gly-Glu-c[Lys-Nle-Glu-His-DPhe-Arg-Trp-Gly-Arg-Pro-Val-Asp]] (HELM PEPTIDE1{[O=C(O)CN1CCN(CC(=O)O)CCN(CC(=O)[*:2])CCN(CC(=O)O)CC1].G.E.K.[Nle].E.H.[dF].R.W.G.R.P.V.D}$PEPTIDE1,PEPTIDE1,4:R3-15:R2$$$V2.0), which IC50 [1] is on record?
A: 0.9 nM

Q: What about the IC50 [7] of the same compound?
A: 2.43 nM
